Results reported in paper PMC6599891 (Journal of molecular biology, 2019).
Where two headings read alike, the source gives them in different places.

Tests used:
EmrE [1] = target: T1, EmrE (Escherichia coli, UniProt P23895, S64V); assay: biochemical
EmrE [2] = target: EmrE (Escherichia coli, UniProt P23895, I101G); assay: biochemical
EmrE [3] = target: EmrE (Escherichia coli, UniProt P23895, N102A); assay: biochemical
EmrE [4] = target: EmrE (Escherichia coli, UniProt P23895); assay: [3H]-TPP+ saturation binding, purified protein in DDM
EmrE [5] = target: EmrE (Escherichia coli, UniProt P23895, M21G); assay: biochemical
EmrE [6] = target: EmrE (Escherichia coli, UniProt P23895, A59L); assay: biochemical
EmrE [7] = target: T1, EmrE; assay: biochemical; remark: listed apart in the source
EmrE [8] = target: EmrE (Escherichia coli, UniProt P23895, N102V); assay: biochemical
EmrE [9] = target: EmrE (Escherichia coli, UniProt P23895, G90V); assay: biochemical
[10] = target: the molecule itself; assay: 1H-15N TROSY-HSQC NMR (peak doubling of the asymmetric homodimer)

Which Kd (EmrE [1]) does the source give for `CC[P+](c1ccccc1)(c1ccccc1)c1ccccc1` [EtTPP^+] here?
The Kd was 11400 ± 100 nM.

`C[P+](c1ccccc1)(c1ccccc1)c1ccccc1` [MeTPP^+] was tested. Which Kd (EmrE [1]) did it give?
Its Kd is 60000 ± 10000 nM.

What does the source list for `c1ccc([P+](c2ccccc2)(c2ccccc2)c2ccccc2)cc1` [TPP^+]?
Kd (EmrE [2]): 2.6 ± 1.3 nM; Kd (EmrE [3]): 2.3 ± 0.4 nM; Kd (EmrE [4]): 0.8 ± 0.1 nM; Kd (EmrE [5]): 4 ± 0.7 nM; Kd (EmrE [6]): 23.4 ± 2.4 nM; Kd (EmrE [7]): 1 ± 0.6 nM; Kd (EmrE [8]): 1.2 ± 0.2 nM; Kd (EmrE [9]): 5.3 ± 0.6 nM

B1: wild type EmrE (natural protein)
chain: MNPYIYLGGAILAEVIGTTLMKFSEGFTRLWPSVGTIICYCASFWLLAQTLAYIPTGIAYAIWSGVGIVLISLLSWGFFGQRLDLPAIIGMMLICAGVLIINLLSRSTPH
Does B1 bind [10]?
Result: binds

B2: EmrE A59L (natural protein)
chain: MNPYIYLGGAILAEVIGTTLMKFSEGFTRLWPSVGTIICYCASFWLLAQTLAYIPTGILYAIWSGVGIVLISLLSWGFFGQRLDLPAIIGMMLICAGVLIINLLSRSTPH
Does B2 bind [10]?
Result: binds

B3: EmrE M21G (natural protein)
chain: MNPYIYLGGAILAEVIGTTLGKFSEGFTRLWPSVGTIICYCASFWLLAQTLAYIPTGIAYAIWSGVGIVLISLLSWGFFGQRLDLPAIIGMMLICAGVLIINLLSRSTPH
Does B3 bind [10]?
Result: binds

B4: S64V-EmrE (natural protein)
chain: MNPYIYLGGAILAEVIGTTLMKFSEGFTRLWPSVGTIICYCASFWLLAQTLAYIPTGIAYAIWVGVGIVLISLLSWGFFGQRLDLPAIIGMMLICAGVLIINLLSRSTPH
Does B4 bind [10]?
Result: binds

B5: EmrE N102A (natural protein)
chain: MNPYIYLGGAILAEVIGTTLMKFSEGFTRLWPSVGTIICYCASFWLLAQTLAYIPTGIAYAIWSGVGIVLISLLSWGFFGQRLDLPAIIGMMLICAGVLIIALLSRSTPH
Does B5 bind [10]?
Result: binds

B6: EmrE N102V (natural protein)
chain: MNPYIYLGGAILAEVIGTTLMKFSEGFTRLWPSVGTIICYCASFWLLAQTLAYIPTGIAYAIWSGVGIVLISLLSWGFFGQRLDLPAIIGMMLICAGVLIIVLLSRSTPH
Does B6 bind [10]?
Result: binds

B7: EmrE I101G (natural protein)
chain: MNPYIYLGGAILAEVIGTTLMKFSEGFTRLWPSVGTIICYCASFWLLAQTLAYIPTGIAYAIWSGVGIVLISLLSWGFFGQRLDLPAIIGMMLICAGVLIGNLLSRSTPH
Does B7 bind [10]?
Result: binds
